Measured values reported in ChEMBL document CHEMBL1201862, “PubChem BioAssay data set” (2004).
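1) Cells in 96-well plates. 2) Compound, 48 h, 5 concentrations. 3) Linear interpolation between surrounding doses. 4) Unreached endpoint = highest concentration. GI50 marks 50% less growth.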 Active and inactive are the calls of the source. Rule as the data show it: active = GI50 up to about 1.1 µM and inactive = higher.

Experiments:
Assay in all cases: NCI tumour cell line growth inhibition, 48 h
SNB-19 = test system: SNB-19
SF-539 = test system: SF-539
NCI-H460 = test system: NCI-H460
HCT-116 = test system: HCT-116
SF-295 = test system: SF-295
NCI-H23 = test system: NCI-H23
NCI-H522 = test system: NCI-H522
786-0 = test system: 786-0
A498 = test system: A498
OVCAR-3 = test system: OVCAR-3
HOP-92 = test system: HOP-92
HOP-62 = test system: HOP-62
LOX IMVI = test system: LOX IMVI
NCI-H226 = test system: NCI-H226

Measured: GI50

Cc1cc(C)c(S(=O)(=O)ONC(=O)OC(C)(C)C)c(C)c1
inactive: SNB-19 > 100 µM | SF-539 > 100 µM | NCI-H460 > 100 µM | HCT-116 > 100 µM | SF-295 > 100 µM | NCI-H23 > 100 µM | NCI-H522 > 100 µM | 786-0 > 100 µM | A498 > 100 µM | OVCAR-3 > 100 µM | HOP-92 > 100 µM | HOP-62 > 100 µM | LOX IMVI > 100 µM

Cc1ccc(NC(=O)/C(=N\NC(N)=S)C(C#N)c2ccccc2C)cc1C (stereo not drawn)
inactive: SNB-19 > 100 µM | NCI-H226 > 100 µM | SF-539 > 100 µM | NCI-H460 > 100 µM | HCT-116 > 100 µM | SF-295 > 100 µM | NCI-H23 > 100 µM | NCI-H522 > 100 µM | 786-0 > 100 µM | A498 > 100 µM | OVCAR-3 > 100 µM | HOP-92 > 100 µM | HOP-62 > 100 µM

Cc1nc2c(nc1C)C(=O)c1cc(O)ccc1C2=O
inactive: SNB-19 99.1 µM | NCI-H226 > 100 µM | SF-539 > 81.1 µM | NCI-H460 38.2 µM | HCT-116 77.6 µM | SF-295 > 87.1 µM | NCI-H23 > 100 µM | NCI-H522 57.4 µM | 786-0 > 95.5 µM | A498 > 69.8 µM | OVCAR-3 29.3 µM | HOP-92 > 100 µM | HOP-62 69.5 µM | LOX IMVI 53.1 µM

CC1CC(=O)c2c(ccc3c2C(=O)c2cccc(O)c2C3=O)C1 (stereo not drawn)
inactive: SNB-19 12.2 µM | NCI-H226 14.4 µM | SF-539 14.8 µM | NCI-H460 4.62 µM | HCT-116 5.08 µM | SF-295 10.9 µM | NCI-H23 5.26 µM | NCI-H522 4.37 µM | 786-0 7 µM | A498 14 µM | OVCAR-3 3.46 µM | HOP-92 1.79 µM | HOP-62 > 10 µM | LOX IMVI 4.47 µM

O=C(Oc1ccc2c(-c3ccccc3)c(C(=O)Nc3ccc(Cl)cc3)c(=O)oc2c1)c1ccccc1
inactive: SNB-19 > 100 µM | NCI-H226 > 100 µM | SF-539 > 100 µM | NCI-H460 > 100 µM | HCT-116 > 100 µM | SF-295 > 100 µM | NCI-H23 > 100 µM | NCI-H522 > 100 µM | 786-0 > 100 µM | OVCAR-3 > 100 µM | HOP-62 > 100 µM | LOX IMVI > 100 µM

COC(=O)C1(C(=O)OC)CC(=O)c2cc3c(cc2-c2c(cc(OC)c(OC)c2OC)C1)OCO3
inactive: SNB-19 55.3 µM | NCI-H226 95.5 µM | SF-539 > 211 µM | NCI-H460 > 211 µM | HCT-116 111 µM | SF-295 80.4 µM | NCI-H23 > 211 µM | NCI-H522 96.4 µM | 786-0 > 211 µM | OVCAR-3 98.2 µM | HOP-92 26.8 µM | HOP-62 > 211 µM | LOX IMVI > 211 µM

O=C(Nc1ccc(F)cc1)C(=O)C(C1OC(=O)c2ccccc21)[N+](=O)[O-] (stereo not drawn)
inactive: SNB-19 > 100 µM | NCI-H226 > 100 µM | SF-539 > 100 µM | NCI-H460 > 100 µM | HCT-116 > 100 µM | SF-295 > 100 µM | NCI-H23 > 100 µM | 786-0 > 100 µM | A498 > 100 µM | OVCAR-3 > 100 µM | HOP-92 > 100 µM | HOP-62 > 100 µM | LOX IMVI > 100 µM

C[Si](C)(C)/C=C/CCC(C=O)(CCCl)c1ccccc1 (stereo not drawn)
inactive: SNB-19 42.7 µM | SF-539 31.2 µM | NCI-H460 31.6 µM | HCT-116 14.1 µM | SF-295 21.1 µM | NCI-H23 21.8 µM | NCI-H522 13.9 µM | 786-0 16.3 µM | A498 64.1 µM | OVCAR-3 16.7 µM | HOP-92 28.1 µM | LOX IMVI 19.1 µM

COC1=CC(=O)[C@]2(C)[C@H](C1=O)C(C)[C@H]2c1ccc(OC)cc1 (stereo partly drawn)
inactive: SNB-19 > 100 µM | NCI-H226 > 100 µM | SF-539 > 100 µM | NCI-H460 > 100 µM | SF-295 > 100 µM | NCI-H23 > 100 µM | NCI-H522 > 100 µM | 786-0 > 100 µM | A498 > 100 µM | OVCAR-3 > 100 µM | HOP-92 > 100 µM | HOP-62 > 100 µM | LOX IMVI > 100 µM

Cc1c(C#N)c(=O)[nH]c(=O)n1CCN1CCN(C(=O)NCCCCCCNC(=O)N2CCN(CCn3c(C)c(C#N)c(=O)[nH]c3=O)CC2)CC1
inactive: SNB-19 > 100 µM | SF-539 > 100 µM | NCI-H460 > 100 µM | HCT-116 > 100 µM | SF-295 > 100 µM | NCI-H23 > 100 µM | 786-0 > 100 µM | A498 > 100 µM | OVCAR-3 > 100 µM | HOP-92 > 100 µM | HOP-62 > 100 µM | LOX IMVI > 100 µM

O=[N+]([O-])c1ccc2nc(/C(=N/Nc3ccccc3)C(O)c3ccco3)c(O)nc2c1 (stereo not drawn)
inactive: SNB-19 > 100 µM | NCI-H226 15.7 µM | SF-539 50.2 µM | NCI-H460 > 100 µM | HCT-116 > 100 µM | SF-295 > 100 µM | NCI-H522 9.55 µM | 786-0 > 100 µM | A498 > 100 µM | HOP-62 37.6 µM | LOX IMVI 72.4 µM

COc1ccccc1NC(=O)C1=C(C)NC(C)=C(C(=O)Nc2ccccc2OC)C1c1ccc(C)cc1
inactive: SNB-19 > 100 µM | NCI-H226 10.5 µM | SF-539 > 100 µM | NCI-H460 31.8 µM | HCT-116 29.9 µM | SF-295 68.4 µM | NCI-H23 94.8 µM | NCI-H522 60.7 µM | 786-0 > 100 µM | A498 23.3 µM | OVCAR-3 > 100 µM | HOP-92 > 100 µM | HOP-62 > 100 µM | LOX IMVI > 100 µM

CCCC(O)c1ccc2[nH]c3c(C)cc([N+](=O)[O-])c(C)c3c2c1 (stereo not drawn)
inactive: SNB-19 > 100 µM | NCI-H226 > 100 µM | SF-539 > 100 µM | NCI-H460 > 100 µM | HCT-116 > 100 µM | SF-295 95.1 µM | NCI-H23 > 100 µM | NCI-H522 > 100 µM | 786-0 27.4 µM | OVCAR-3 83.2 µM | HOP-62 > 100 µM | LOX IMVI > 100 µM

O=C1C=CC2(CCC23C=CC(=O)O3)O1 (stereo not drawn)
inactive: SNB-19 > 100 µM | NCI-H226 > 100 µM | SF-539 > 100 µM | NCI-H460 > 100 µM | HCT-116 > 100 µM | SF-295 > 100 µM | NCI-H23 > 100 µM | NCI-H522 51.6 µM | 786-0 > 100 µM | A498 > 100 µM | OVCAR-3 > 100 µM | HOP-62 > 100 µM | LOX IMVI > 100 µM

CCCCNC(=S)Nn1c(-c2ccccc2)nc2ccccc2c1=O
inactive: NCI-H226 > 100 µM | SF-539 > 100 µM | NCI-H460 > 100 µM | HCT-116 > 100 µM | SF-295 > 100 µM | NCI-H23 > 100 µM | NCI-H522 86.3 µM | 786-0 > 100 µM | A498 > 100 µM | HOP-92 67.3 µM | HOP-62 > 100 µM | LOX IMVI 74.1 µM

Cc1cccc(-c2nnc3s/c(=C\c4ccc(N(C)C)cc4)c(=O)n23)c1
inactive: SNB-19 > 100 µM | NCI-H226 > 100 µM | SF-539 > 100 µM | NCI-H460 > 100 µM | HCT-116 > 100 µM | SF-295 > 100 µM | NCI-H23 > 100 µM | NCI-H522 > 100 µM | 786-0 > 100 µM | A498 > 100 µM | OVCAR-3 > 100 µM | HOP-92 > 100 µM | HOP-62 > 100 µM | LOX IMVI > 100 µM

O=C1C(Cl)C(c2cccc(O)c2)N1n1cnc2ccccc2c1=O (stereo not drawn)
inactive: SNB-19 49.5 µM | NCI-H226 21.6 µM | NCI-H460 > 100 µM | HCT-116 89.9 µM | SF-295 > 100 µM | NCI-H23 > 100 µM | NCI-H522 > 100 µM | 786-0 > 100 µM | OVCAR-3 > 100 µM | HOP-62 > 100 µM | LOX IMVI > 100 µM

NC(=O)C(=O)C1CCC2=C(Sc3ccccc3N2)C1=O (stereo not drawn)
inactive: SNB-19 > 100 µM | SF-539 > 100 µM | NCI-H460 > 100 µM | HCT-116 > 100 µM | NCI-H23 > 100 µM | NCI-H522 37.5 µM | 786-0 > 100 µM | A498 > 100 µM | OVCAR-3 > 100 µM | HOP-92 27.4 µM | HOP-62 > 100 µM | LOX IMVI > 100 µM

N#Cc1cccc(C2C(=O)c3ccc(C(=O)c4ccc5c(c4)C(=O)N(c4ccc(Oc6ccc(N7C(=O)c8ccc(C(=O)c9ccc%10c(c9)C(=O)N(c9cccc(C#N)c9)C%10=O)cc8C7=O)cc6)cc4)C5=O)cc3C2=O)c1 (stereo not drawn)
inactive: SNB-19 82.2 µM | SF-539 > 100 µM | NCI-H460 > 100 µM | HCT-116 > 100 µM | SF-295 > 100 µM | NCI-H23 > 100 µM | NCI-H522 > 100 µM | 786-0 > 100 µM | OVCAR-3 > 100 µM | HOP-92 > 100 µM | HOP-62 > 100 µM

CCC(=O)N(O)C(C)(C)C
inactive: SNB-19 > 100 µM | NCI-H226 > 100 µM | SF-539 > 100 µM | NCI-H460 > 100 µM | HCT-116 > 100 µM | SF-295 > 100 µM | NCI-H23 > 100 µM | NCI-H522 > 100 µM | 786-0 > 100 µM | OVCAR-3 > 100 µM | HOP-92 > 100 µM | HOP-62 > 100 µM | LOX IMVI > 100 µM

COC(=O)C1=C(C(=O)OC)C(C(=O)OC)C(C(=O)OC)=C1C(=O)OC
inactive: SNB-19 > 100 µM | SF-539 > 100 µM | NCI-H460 > 100 µM | SF-295 > 100 µM | NCI-H23 > 100 µM | NCI-H522 > 100 µM | 786-0 > 100 µM | OVCAR-3 > 100 µM | HOP-92 > 100 µM | HOP-62 > 100 µM | LOX IMVI > 100 µM
